In US5998414A, “Troponyl piperazines as dopamine D4 receptor ligands” (priority 1997, dated 1999):

Legend:
[1] = molecular target: human D2 receptor (short isoform) (Homo sapiens, UniProt P14416); assay: D2 receptor displacement binding assay (3H-spiperone, membrane homogenate of stably transfected GH4 C1 cells), used for D2/D4 selectivity; settings: ratio D2/D4, 3H-spiperone displacement
Protocol: (§1) The potency of the test compound to reduce ^3 H-spiperone binding directly correlated to its binding affinity for the receptor.
GH4 C1 (rat pituitary) cells stably transfected with the human D2 receptor (short isoform) were grown in HAM'S F10 media in NUNC cell factories for 5 days. 100 μM ZnSO4 was added to the cells (the D2 promoter being zinc inducible). After 16 hours, fresh media was added to allow the cells to recover for 24 hours. The cells were harvested using versine and then centrifuged in a Sorval centrifuge for 10 minutes, at 5000 rpm (GS3 rotor). Pellets were quickly frozen in liquid nitrogen and stored at -80° C. until used in the binding assays. When used in the assay, cells were thawed on ice for 20 minutes. […] The receptor protein concentration was determined using the Pierce BCA assay.
(§2) Total Spiperone Binding Assay
(§3) The plates were vortexed and incubated at room temperature for 90 minutes. The binding reaction was stopped by filtering using a Packard Harvester. The samples were filtered under vacuum over glass fibre filter plates (Whatman GF/B) presoaked for 2 hours in 0.3% polyethylenimine (PEI) in 50 mM Tris buffer (pH 7.4). The filters were then washed 6 times with 7 ml ice cold 50 mM Tris buffer (pH 7.4). The filter plates were dried overnight and 35 μl of Microscint-O (Packard) was added. The plates were sealed and counted in the Packard Top Count (3 minutes per well).
Non-specific Binding Assay for D2
This assay employed the same procedures as the non-specific binding assay for D4 with the exception that 2 μM (final conc.) of (-) sulpiride (Research Chemicals Inc.) was used in place of dopamine.
(§4) Displacement Binding Assay
(§5) The incubation was started by the addition, in 96-well polypropylene plates (1 mL per well), of 100 μl (50 μg protein) membrane homogenate to a solution of 200 μl incubation buffer, 100 μl ([…].) ^3 H-spiperone (90 Ci/mmol, Amersham, diluted in borosilicate glass vial) and 100 μl of test compound that was prepared from 1 mM stock dissolved in DMSO and stored at -20° C. in polypropylene cryogenic storage vials until dilution in incubation buffer in 96-well polypropylene plates. The plates were vortexed and incubated at room temperature for 90 minutes at which time the binding reaction was stopped by filtering. The filters were washed and counted using the same procedure as in the total binding assay described above to give the displacement binding value (BD).
(§6) IC50 was determined from an inhibition response curve, logit-log plot of %B/B0 vs concentration of test compound.
(§7) Ki was calculated by the Cheng and Prustoff transformation: […]
(§8) where [L] is the concentration of ^3 H-spiperone used in the assay and KD is the dissociation constant of ^3 H-spiperone determined independently under the same binding conditions.

[2] = molecular target: T1, human D4 receptor (D4.2 sub-type) (Homo sapiens, UniProt P21917, DEL265-296); assay: D4 receptor displacement binding assay (3H-spiperone, membrane homogenate of stably transfected HEK 298 cells); settings: 3H-spiperone displacement, human D4.2, HEK cells; Cheng and Prustoff transformation of IC50; read-out: D4 affinity Ki
T1 construct: expressed in transfected cells; host or cells: HEK 298 (human embryonic kidney) cells (so in the source); membrane homogenate
T1 sequence (P21917 with tags, fused parts or gaps DEL265-296): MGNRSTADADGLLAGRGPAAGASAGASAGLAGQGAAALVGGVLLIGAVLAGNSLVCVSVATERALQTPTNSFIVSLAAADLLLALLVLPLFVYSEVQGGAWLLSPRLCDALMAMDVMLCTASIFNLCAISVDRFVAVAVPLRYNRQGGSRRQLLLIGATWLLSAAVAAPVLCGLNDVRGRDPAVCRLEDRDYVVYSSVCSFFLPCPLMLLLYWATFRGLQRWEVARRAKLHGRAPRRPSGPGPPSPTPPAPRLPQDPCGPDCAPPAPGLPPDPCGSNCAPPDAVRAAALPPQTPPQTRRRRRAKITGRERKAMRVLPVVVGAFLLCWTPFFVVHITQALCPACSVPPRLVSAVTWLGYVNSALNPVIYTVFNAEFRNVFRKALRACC
Protocol: as §1
The cells were then centrifuged in a Sorval centrifuge for 10 min, 5000 rpm (GS3 rotor) and the pellets quickly frozen in liquid nitrogen and stored at -80° C. until used in binding assay. When used in the assay, cells were thawed on ice for 20 min and then 10 ml of incubation buffer (50 mM Tris, 1 mM EDTA, 4 mM MgCl2, 5 mM KCl, 1.5 mM CaCl2, 120 mM NaCl, pH 7.4) was added. […] Concentration of receptor protein was determined using the Pierce BCA assay.
as §2, §3
Non-specific Binding Assay for D4
The plates were vortexed and incubated at room temperature for 90 minutes at which time the binding reaction was stopped by filtering. The filters were washed and counted using the same procedure as in the total binding assay described above to give the non-specific binding value (NSB).
as §4, §5, §6, §7, §8

human D4.2 receptors = molecular target: T2, human D4.2 receptors (Homo sapiens, UniProt P21917, DEL265-296); assay: Functional antagonist assay: reversal of dopamine inhibition of forskolin-stimulated adenyl cyclase (cAMP) in CHO Pro 5 cells; format: cell-based; settings: dopamine and forskolin both 10 μM, read-out: % reversal of dopamine effect; for inhibition at 1 µM: 1 μM test compound; for inhibition at 10 µM: 10 μM test compound
T2 construct: expressed in transfected cells; host or cells: CHO Pro 5 cells
T2 sequence (P21917 with tags, fused parts or gaps DEL265-296): T1 sequence (P21917 with tags, fused parts or gaps DEL265-296)
Protocol: The D4 receptor responds to dopamine and other agonists by reducing adenyl cyclase mediated production of cyclic AMP. Particular test compounds were assayed for their ability to reverse dopamine inhibition of adenyl cyclase by the following procedure. Forskolin was used to elevate the basal adenyl cyclase activity.
CHO Pro 5 cells stably expressing human D4.2 receptors were plated in 6 well plates in DMEM (Dulbecco's Modified Eagle Medium)/F12(Nutrient Mixture F12 (Ham)) media with 10% FCS (fetal calf serum) and G418 (Geneticen Disulfate), and incubated at 37° C. in a CO2 incubator. The cells were allowed to grow to about 70% confluence before use in the assay.
The culture media of each well was removed, and the wells were washed once with serum free media (SFM) (DMEM/F12) media. Then 2 mL of fresh SFM+IBMX media (SFM with 0.5 mM IBMX, 3-isobutyl-1-methylxanthine, 0.1% ascorbic acid and 10 μM pargyline) was added to each well and then incubated at 37° C. for 10 minutes in a CO2 incubator. […] Basal adenyl cyclase activity was determined from wells with only SFM+IBMX media added.
The cells were then incubated at 37° C. for 30 minutes in a CO2 incubator. Following incubation the media was removed from each well and then washed once with 1 mL of PBS (phosphate buffered saline). […] The cells from each well were then scraped and transferred into individual Eppendorf tubes. The tubes were centrifuged for 5 min at 4° C., and the supernatants were transferred to new Eppendorf tubes.
Total inhibition (I0) of forskolin-stimulated adenyl cyclase activity by dopamine was determined as the difference in concentration of cAMP in the forskolin-treated cells (Cf) and dopamine-forskolin treated cells (Cd).
Net inhibition (I) of forskolin-stimulated adenyl cyclase activity by dopamine in the presence of an antagonist was determined as the difference in concentration of cAMP in the forskolin-treated cells (Cf) and test compound, dopamine and forskolin treated cells (C).
The ability of the test compounds to reverse the dopamine inhibition (% reversal, % R) was determined by the formula: […]

D4 receptor = settings: background, marketed products; cited from earlier work
D2 receptor = settings: background, marketed products; cited from earlier work

Sequence of human D2 receptor (short isoform) (P14416 with tags, fused parts or gaps DEL242-270): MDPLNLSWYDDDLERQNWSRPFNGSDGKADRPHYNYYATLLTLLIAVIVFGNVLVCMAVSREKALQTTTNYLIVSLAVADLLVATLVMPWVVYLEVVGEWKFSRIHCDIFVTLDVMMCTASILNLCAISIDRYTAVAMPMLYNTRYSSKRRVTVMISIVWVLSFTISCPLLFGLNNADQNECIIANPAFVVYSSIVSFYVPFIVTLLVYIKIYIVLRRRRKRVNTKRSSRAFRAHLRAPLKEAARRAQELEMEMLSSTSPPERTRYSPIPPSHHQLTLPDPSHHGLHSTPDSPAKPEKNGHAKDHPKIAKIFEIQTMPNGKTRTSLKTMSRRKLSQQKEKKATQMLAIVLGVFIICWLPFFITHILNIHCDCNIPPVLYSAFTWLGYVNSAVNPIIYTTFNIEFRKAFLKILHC

Row | Compound | D2/D4 selectivity [1] | Ki [2] [nM] | inhibition at 1 µM (human D4.2 receptors) [%] | inhibition at 10 µM (human D4.2 receptors) [%] | Ki (D4 receptor) [nM] | preference for binding the D4 receptor relative to the D2 receptor (D2 receptor)
1 | O=c1cccccc1N1CCN(Cc2ccc([N+](=O)[O-])cc2)CC1 [2-[4-(4-nitrobenzyl)-1-piperazinyl]-2,4,6-cycloheptatriene-1-one] | 1014 | 6.67 |  |  |  | 
2 | O=c1cccccc1N1CCN(Cc2cccc(Br)c2)CC1 [2-[4-(3-bromobenzyl)-1-piperazinyl]-2,4,6-cycloheptatriene-1-one] | 53 | 9.58 |  |  |  | 
3 | O=c1c(-c2cccs2)ccccc1N1CCN(Cc2ccc3c(c2)OCO3)CC1 [2-(4-Piperonyl-1-piperazinyl)7-thien2-yl-2,4,6-cycloheptatriene-1-one] | 34 | 11.9 |  |  |  | 
4 | O=c1cccccc1N1CCN(Cc2ccc3c(c2)OCO3)CC1 [2-(4-Piperonyl-1-piperazinyl)-2,4,6-cycloheptatriene-1-one] | 154 | 7.15 | 32 | 65 |  | 
5 | COc1cccc(CN2CCN(c3cccccc3=O)CC2)c1 [2-[4-(3-Methoxybenzyl)-1-piperazinyl]-2,4,6-cycloheptatriene-1-one] | 137 | 19.2 |  |  |  | 
6 | O=c1cccccc1N1CCN(Cc2cccc(C(F)(F)F)c2)CC1 [2-[4-(3-trifluoromethylbenzyl)-1-piperazinyl]-2,4,6-cycloheptatriene-1-one] | 28 | 21.5 |  |  |  | 
7 | CN1CCN(C2=Nc3cc(Cl)ccc3Oc3ccccc32)CC1 [isoloxapine] |  |  |  |  | ~20 | about 10 fold
8 | CCCCCCN1CCN(c2cccccc2=O)CC1 [2-(4-hexyl-1-piperazinyl)-2,4,6-cycloheptatriene-1-one] | 23 | 33.3 | 45 | 50 |  | 
9 | N#Cc1ccc(CN2CCN(c3cccccc3=O)CC2)cc1 [2-[4-(4-cyanobenzyl)-1-piperazinyl]-2,4,6-cycloheptatriene-1-one] | 169 | 29.5 |  |  |  | 

The remaining compounds from weak to strong by Ki [2], led by results:

Row | D2/D4 selectivity [1] | Ki [2] [nM] | inhibition at 1 µM (human D4.2 receptors) [%] | inhibition at 10 µM (human D4.2 receptors) [%] | Compound | Ki (D4 receptor) [nM] | preference for binding the D4 receptor relative to the D2 receptor (D2 receptor)
10 | 598 | 4.22 |  |  | O=c1cccccc1N1CCN(Cc2ccc(C(F)(F)F)cc2)CC1 [2-[4-(4-trifluoromethylbenzyl)-1-piperazinyl]-2,4,6-cycloheptatriene-1-one] |  | 
11 | 321 | 2.24 |  |  | O=c1cccccc1N1CCN(Cc2ccc3ccccc3c2)CC1 |  | 
12 | 367 | 2.18 |  |  | O=c1cccccc1N1CCN(Cc2ccc(OC(F)(F)F)cc2)CC1 [2-[4-(4-trifluoromethoxybenzyl)-1-piperazinyl]-2,4,6-cycloheptatriene-1-one] |  | 
13 | 443 | 1.46 |  |  | Cc1ccc(CN2CCN(c3cccccc3=O)CC2)cc1 [2-[4-(4-methylbenzyl)-1-piperazinyl]-2,4,6-cycloheptatriene-1-one] |  | 
14 | 935 | 0.82 |  |  | O=c1cccccc1N1CCN(Cc2ccc(Br)cc2)CC1 [2-[4-(4-bromobenzyl)-1-piperazinyl]-2,4,6-cycloheptatriene-1-one] |  | 
15 | 104 | 0.226 |  |  | O=c1c(Br)ccccc1N1CCN(Cc2ccc3c(c2)OCO3)CC1 [7-bromo-2-(4-piperonyl-1-piperazinyl)-2,4,6-cycloheptatriene-1-one] |  | 
